Assays:
Experiment in all cases: relative viability (nuclei count vs DMSO), 5 days (fraction); higher = more cells survive
FG-4592 = compound: Cc1nc(C(=O)NCC(=O)O)c(O)c2ccc(Oc3ccccc3)cc12 [FG-4592]
In short: (§1)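 For viability, nuclei in each treated well were divided by nuclei in vehicle wells and the median across plates was taken. Lung cancer cell lines in 1536-well plates were pinned with five library-drug doses (not always all listed) spaced by √10, cultured 5 days without medium change, and imaged at 4× after Hoechst staining, with plates passing only at control CV below 25% and at least one doubling.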

IU1-47 = compound: CC1=CC(=C(N1C2=CC=C(C=C2)Cl)C)C(=O)CN3CCCCC3 [IU1-47]
In short: as §1

IU1-47 + Alpelisib = compound: CC1=CC(=C(N1C2=CC=C(C=C2)Cl)C)C(=O)CN3CCCCC3 [IU1-47] + Cc1nc(NC(=O)N2CCC[C@H]2C(N)=O)sc1-c1ccnc(C(C)(C)C(F)(F)F)c1 [Alpelisib] (partner 2 µM)
In short: (§2)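 Five library-drug doses in √10 steps were combined with a fixed anchor-drug dose, or a single drug was given alone, by pin tool to lung cancer cell lines in 1536-well plates the day after seeding. Nuclei were stained and counted after 5 days. Relative viability is the nuclei count in treated wells over that in vehicle wells, taken as the median of duplicate plates.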

IU1-47 + Pictilisib = compound: CC1=CC(=C(N1C2=CC=C(C=C2)Cl)C)C(=O)CN3CCCCC3 [IU1-47] + CS(=O)(=O)N1CCN(Cc2cc3nc(-c4cccc5[nH]ncc45)nc(N4CCOCC4)c3s2)CC1 [Pictilisib] (partner 1 µM)
In short: as §2

UMC-11 was tested. Which relative viability (FG-4592; 0.08 µM) did it give?
The relative viability was 0.952.

And the relative viability (FG-4592; 0.253 µM)?
Its relative viability is 0.928.

What about the relative viability (FG-4592; 0.8 µM) of the same cell line?
Its relative viability is 0.806.

And the relative viability (FG-4592; 2.53 µM)?
Its relative viability is 1.07.

What about the relative viability (FG-4592; 8 µM) of the same cell line?
The relative viability was 0.804.

And the relative viability (IU1-47; 0.08 µM)?
Its relative viability is 1.01.

And the relative viability (IU1-47; 0.253 µM)?
Its relative viability is 0.961.

What about the relative viability (IU1-47; 0.8 µM) of the same cell line?
The relative viability was 1.01.

What about the relative viability (IU1-47; 2.53 µM) of the same cell line?
Its relative viability is 0.991.

And the relative viability (IU1-47; 8 µM)?
Its relative viability is 0.922.

And the relative viability (IU1-47 + Alpelisib; first compound 0.08 µM)?
Its relative viability is 1.09.

And the relative viability (IU1-47 + Alpelisib; first compound 0.253 µM)?
Its relative viability is 1.1.

What about the relative viability (IU1-47 + Alpelisib; first compound 0.8 µM) of the same cell line?
Its relative viability is 1.02.

What about the relative viability (IU1-47 + Alpelisib; first compound 2.53 µM) of the same cell line?
Its relative viability is 1.24.

What about the relative viability (IU1-47 + Alpelisib; first compound 8 µM) of the same cell line?
The relative viability was 0.735.

What about the relative viability (IU1-47 + Pictilisib; first compound 0.08 µM) of the same cell line?
Its relative viability is 0.678.

And the relative viability (IU1-47 + Pictilisib; first compound 0.253 µM)?
The relative viability was 0.75.

What about the relative viability (IU1-47 + Pictilisib; first compound 0.8 µM) of the same cell line?
Its relative viability is 0.868.

And the relative viability (IU1-47 + Pictilisib; first compound 2.53 µM)?
Its relative viability is 1.01.

What about the relative viability (IU1-47 + Pictilisib; first compound 8 µM) of the same cell line?
The relative viability was 0.743.

From the supplement of paper PMC10307832
